Assays:
[1] = system: Listeria monocytogenes; test: MIC of host defense peptides in liquid medium (microbroth dilution); assay type: cell-based; conditions: 37°C; for MIC: 18–24 h
Procedure: (§1) Experiments were carried out with a collection of 25 Listeria monocytogenes strains (Table 1) and 16 Staphylococcus aureus strains (Table 2) representing different lineages and serotypes (L. monocytogenes), spa types (S. aureus), and origins (food processing environment, food products, and human clinical isolates). Six L. monocytogenes strains were mutants of the EGD strain and were mutated in genes known to be involved in stress tolerance. The S. aureus collection comprised two deletion mutants, strains Sa113/ΔmprF [8] and Sa113/ΔdltA [7], known to be more sensitive to host defense peptides. Two of the S. aureus strains could not immediately be assigned to an existing spa type and we are in the process of acquiring the additional information that is needed to assign a new spa type to them. The strains were obtained from The National Institute of Aquatic Resources and The National Food Institute, Technical University of Denmark, Faculty of Life Sciences, University of Copenhagen, Denmark, Statens Serum Institut, Denmark, University of Würzburg, Germany and Campden Food and Drink Association, United Kingdom. Stock cultures were stored at -80°C in 4% (w/V) glycerol, 0.5% (w/V) glucose, and 2.0% (w/V) skimmed milk powder. The bacteria were grown in Brain Heart Infusion (BHI) broth (Oxoid, CM0225), Tryptone Soy Broth (TSB) (Oxoid, CM129), and cation-adjusted Mueller-Hinton II Broth (MHB) (Becton Dickinson, 212322) adjusted to pH 7.4. To avoid unspecific binding of host defense peptides to plastic ware and agar, all MIC determinations were carried out using polypropylene plastic ware and radial diffusion assays were carried out in MHB supplemented with 1% agarose (Invitrogen, 15510-027) as gelling agent.
(§2) Protamine was purchased from Sigma (P4020-5G). Plectasin, novicidin, and novispirin G10 were supplied by Novozymes A/S. Recombinant HBD-3 was purchased from PeproTech (300-52).
(§3) The strain collection was tested for sensitivity to protamine, plectasin, novicidin, and novispirin G10 by determining their minimal inhibitory concentration (MIC) using a microbroth dilution method. Colonies from a BHI agar plate incubated overnight were suspended in MHB pH 7.4 to a turbidity of 0.11–0.12 at 546 nm (approx. 1.0 × 10^8 CFU/ml) and diluted in MHB to a concentration of 5.0 × 10^5 CFU/ml. 90 μl of bacterial suspension was incubated with 10 μl of peptide solution in polypropylene 96-well plates (Nunc, 442587) for 18–24 h at 37°C. The peptide solutions were made fresh on the day of assay and diluted two-fold. The range of concentrations assayed were 0.031–32 μg/ml for novicidin, 0.125–128 μg/ml for protamine and novispirin G10, and 0.25–256 μg/ml for plectasin. MIC was the lowest peptide concentration at which visual growth was inhibited. The minimum bactericidal concentration (MBC) values were determined by plating l0 μl samples from wells with no visible growth onto BHI agar plates. MBC was the lowest concentration of each peptide of which 99.9% reduction of the initial inoculum was observed.

[2] = system: Staphylococcus aureus; test: as above; assay type: cell-based; conditions: 37°C; for MIC: 18–24 h
Procedure: as §1, §2, §3

[3] = system: L. monocytogenes and S. aureus; test: Minimum bactericidal concentration (MBC), plating from MIC wells; assay type: cell-based, Listeria monocytogenes, Staphylococcus aureus; conditions: 99.9% reduction of initial inoculum; 10 μl from wells with no visible growth plated on BHI agar
Procedure: as §3

[4] = strain 2275 (EGD dps del), MHB pH 7.4, 5.0 × 10^5 CFU/ml
[5] = strain 2307 (EGD resD del), MHB pH 7.4, 5.0 × 10^5 CFU/ml
[6] = strain 2315 (EGD sigB del), MHB pH 7.4, 5.0 × 10^5 CFU/ml
[7] = strain 2317 (EGD prfA del), MHB pH 7.4, 5.0 × 10^5 CFU/ml
[8] = strain 2374 (EGD perR ins), MHB pH 7.4, 5.0 × 10^5 CFU/ml
[9] = strain 2375 (EGD perR del), MHB pH 7.4, 5.0 × 10^5 CFU/ml
[10] = strain 4239, MHB pH 7.4, 5.0 × 10^5 CFU/ml
[11] = strain 4446, MHB pH 7.4, 5.0 × 10^5 CFU/ml
[12] = strain 4459, MHB pH 7.4, 5.0 × 10^5 CFU/ml
[13] = strain 4666, MHB pH 7.4, 5.0 × 10^5 CFU/ml
[14] = strain 6895, MHB pH 7.4, 5.0 × 10^5 CFU/ml
[15] = strain 7291, MHB pH 7.4, 5.0 × 10^5 CFU/ml
[16] = strain 7418, MHB pH 7.4, 5.0 × 10^5 CFU/ml
[17] = strain EGD (wildtype), MHB pH 7.4, 5.0 × 10^5 CFU/ml
[18] = strain H13-1, MHB pH 7.4, 5.0 × 10^5 CFU/ml
[19] = strain LO28 (wildtype), MHB pH 7.4, 5.0 × 10^5 CFU/ml
[20] = strain La22, MHB pH 7.4, 5.0 × 10^5 CFU/ml
[21] = strain La111, MHB pH 7.4, 5.0 × 10^5 CFU/ml
[22] = strain M103-1, MHB pH 7.4, 5.0 × 10^5 CFU/ml
[23] = strain N53-1, MHB pH 7.4, 5.0 × 10^5 CFU/ml
[24] = strain No40-1, MHB pH 7.4, 5.0 × 10^5 CFU/ml
[25] = strain O57, MHB pH 7.4, 5.0 × 10^5 CFU/ml
[26] = strain R479a, MHB pH 7.4, 5.0 × 10^5 CFU/ml
[27] = strain Scott A, MHB pH 7.4, 5.0 × 10^5 CFU/ml
[28] = strain V518a, MHB pH 7.4, 5.0 × 10^5 CFU/ml
[29] = strain 796, MHB pH 7.4, 5.0 × 10^5 CFU/ml
[30] = strain 2148-jvi, MHB pH 7.4, 5.0 × 10^5 CFU/ml
[31] = strain 8325-4 (wildtype), MHB pH 7.4, 5.0 × 10^5 CFU/ml
[32] = strain 15033, MHB pH 7.4, 5.0 × 10^5 CFU/ml
[33] = strain B29997, MHB pH 7.4, 5.0 × 10^5 CFU/ml
[34] = strain B31369, MHB pH 7.4, 5.0 × 10^5 CFU/ml
[35] = strain J15033, MHB pH 7.4, 5.0 × 10^5 CFU/ml
[36] = strain K3-B2, MHB pH 7.4, 5.0 × 10^5 CFU/ml
[37] = strain KES 439, MHB pH 7.4, 5.0 × 10^5 CFU/ml
[38] = strain KES 626, MHB pH 7.4, 5.0 × 10^5 CFU/ml
[39] = strain KES 735, MHB pH 7.4, 5.0 × 10^5 CFU/ml
[40] = strain KES 855, MHB pH 7.4, 5.0 × 10^5 CFU/ml
[41] = strain Sa113 (wildtype), MHB pH 7.4, 5.0 × 10^5 CFU/ml
[42] = strain ΔdltA (Sa113 dltA ins), MHB pH 7.4, 5.0 × 10^5 CFU/ml
[43] = strain ΔmprF (Sa113 mprF del), MHB pH 7.4, 5.0 × 10^5 CFU/ml

In the case of protamine, the “MIC values against L. monocytogenes (range over strains)” value ([1]; range over 25 strains, MHB pH 7.4, 18–24 h) is reported as 8 to 32 µg/mL, the MIC [1, 4] is reported as 16 µg/mL and the MIC [1, 5] is reported as 8 µg/mL. It also gave an MIC [1, 6] of 8 µg/mL, an MIC [1, 7] of 16 µg/mL and an MIC [1, 8] of 32 µg/mL. For the same substance, the MIC [1, 9] was 32 µg/mL, the MIC [1, 10] was 32 µg/mL and the MIC [1, 11] was 16 µg/mL. It also gave an MIC [1, 12] of 16 µg/mL, an MIC [1, 13] of 8 µg/mL and an MIC [1, 14] of 16 µg/mL. For the same substance, the MIC [1, 15] was 32 µg/mL, the MIC [1, 16] was 32 µg/mL and the MIC [1, 17] was 8 µg/mL. It also gave an MIC [1, 18] of 16 µg/mL, an MIC [1, 19] of 8 µg/mL and an MIC [1, 20] of 16 µg/mL. It also gave an MIC [1, 21] of 8 µg/mL, an MIC [1, 22] of 32 µg/mL and an MIC [1, 23] of 16 µg/mL. It also gave an MIC [1, 24] of 16 µg/mL, an MIC [1, 25] of 16 µg/mL and an MIC [1, 26] of 16 µg/mL. The MIC [1, 27] was 16 µg/mL, the MIC [1, 28] was 32 µg/mL and the “MIC values against S. aureus (range over strains)” value ([2]; range over 16 strains, MHB pH 7.4, 18–24 h) was 8 to 32 µg/mL. For the same substance, the MIC [2, 29] was 16 µg/mL, the MIC [2, 30] was 16 µg/mL and the MIC [2, 31] was 16 µg/mL. The MIC ([2]; strain 14943, MHB pH 7.4, 5.0 × 10^5 CFU/ml) was 16 µg/mL, the MIC [2, 32] was 32 µg/mL and the MIC [2, 33] was 16 µg/mL. The MIC [2, 34] was 16 µg/mL, the MIC [2, 35] was 16 µg/mL and the MIC [2, 36] was 16 µg/mL. For the same substance, the MIC [2, 37] was 32 µg/mL, the MIC [2, 38] was 16 µg/mL and the MIC [2, 39] was 16 µg/mL. The MIC [2, 40] was 16 µg/mL, the MIC [2, 41] was 16 µg/mL and the MIC [2, 42] was 8 µg/mL. The MIC [2, 43] was 8 µg/mL.
For novispirin G10, the “minimum bactericidal concentrations (MBC)” value [3] was “identical to the MICs”, the MIC [1, 4] was 64 µg/mL and the MIC [1, 5] was 32 µg/mL. For the same substance, the MIC [1, 6] was 64 µg/mL, the MIC [1, 7] was 64 µg/mL and the MIC [1, 8] was 32 µg/mL. The MIC [1, 9] was 32 µg/mL, the MIC [1, 10] was 64 µg/mL and the MIC [1, 11] was 64 µg/mL. The MIC [1, 12] was 32 µg/mL, the MIC [1, 13] was 64 µg/mL and the MIC [1, 14] was 96 µg/mL. For the same substance, the MIC [1, 15] was 128 µg/mL, the MIC [1, 16] was 64 µg/mL and the MIC [1, 17] was 64 µg/mL. It also gave an MIC [1, 18] of 64 µg/mL, an MIC [1, 19] of 16 µg/mL and an MIC [1, 20] of 64 µg/mL. It also gave an MIC [1, 21] of 32 µg/mL, an MIC [1, 22] of 64 µg/mL and an MIC [1, 23] of 32 µg/mL. It also gave an MIC [1, 24] of 64 µg/mL, an MIC [1, 25] of 128 µg/mL and an MIC [1, 26] of 64 µg/mL. It also gave an MIC [1, 27] of 32 µg/mL, an MIC [1, 28] of 64 µg/mL and an MIC [2, 29] of 128 µg/mL. For the same substance, the MIC [2, 30] was 64 µg/mL, the MIC [2, 31] was 128 µg/mL and the MIC [2, 32] was 128 µg/mL. The MIC [2, 33] was 128 µg/mL, the MIC [2, 34] was 256 µg/mL and the MIC [2, 35] was 128 µg/mL. It also gave an MIC [2, 36] of 128 µg/mL, an MIC [2, 37] of 128 µg/mL and an MIC [2, 38] of 64 µg/mL. For the same substance, the MIC [2, 39] was 128 µg/mL, the MIC [2, 40] was 64 µg/mL and the MIC [2, 41] was 128 µg/mL. It also gave an MIC [2, 42] of 2 µg/mL and an MIC [2, 43] of 8 µg/mL.

From article PMC2639596, “Antimicrobial peptides effectively kill a broad spectrum of Listeria monocytogenes and Staphylococcus aureus strains independently of origin, sub-type, or virulence factor expression” (BMC Microbiology, 2008)
